Measured values reported in patent publication US20060127400A1, “Activation of regulatory T cells by alpha-melanocyte stimulating hormone” (THE SCHEPENS EYE RESEARCH INSTITUTE, INC., priority 1999, published 2006).
“Also recorded” adds a separate entry of the source. No end group written: not given here.

System: primed T cells
Experiment: lymphokine production by TCR-stimulated primed T cells, sandwich ELISA of culture supernatant
Assay type: cell-based, mouse (BALB/c)
Conditions: 48 h supernatant
Protocol: Sandwich Enzyme Linked Immunosorbent Assay (ELISA). The wells of a 96-well flexible microtiter plate (Falcon, Oxnard, Calif.) were coated with capturing monoclonal antibody (anti-IFN-γ; Pharmingen, San Diego, Calif.) to the cytokine being assayed. The plate was incubated overnight at 4° C. and was washed with a solution of phosphate buffer saline, […] and 1% BSA (wash buffer) and blocked with PBS plus 1% BSA (PBS-BSA). The plate was incubated for 1 hour room temperature and washed. Samples were added to the wells and the plate was incubated for 3 hours at room temperature. The plate was washed 3 times and into each well 100 μl of 1.0 μg/ml of biotinylated-detecting monoclonal anti-IFN-γ antibody (Pharmingen) was added. The plate was incubated for 1 hour and washed 3 times. Strepavidin-β-galactosidase (Gibco/BRL), 100 μl, was added to the wells and the plate was incubated for 30 min and washed 5 times. The substrate chlorophenyl-red-β-D-galactoside (CPRG: Calbiochem, San Diego, Calif.) was added to the wells and color was allowed to develop for 30 min. The optical density of the converted CPRG was read on a standard ELISA plate reader at a wavelength of 570 nm. The INF-γ concentration of the standard samples were plotted against their OD to create a standard curve. Using this standard curve, the concentration of INF-γ in the assayed culture supernatant was determined from the OD of the test well and sample dilution factor.
α-MSH treatment of primed T cells. […] The cells were collected onto filter paper using a Tomtec Plate Harvester 96, and radiolabel was measured using a Wallac 1205 Betaplate Liquid Scintillation Counter. […]
In FIG. 16A, proliferation was measured by adding to the T cell cultures 3H-thymidine 24 hours after activation and measuring the counts per minute (CPM) 24 hours later. In FIG. 16(B-D), lymphokine production was measured by assaying the 48 hour culture supernatants by sandwich ELISA for IFN-γ, IL-4, and IL-10. […]

[1] = TCR-stimulated in the presence of α-MSH

Substance: α-melanocyte stimulating hormone (SYSMEHFRWGKPV; not fully specified; ends and bridges not checked; UniProt P01189 138-150, looked up) [α-MSH, synthetic α-MSH (Peninsula Laboratories); thirteen-amino acid neuropeptide derived from POMC]
- IL-4 in culture supernatant [1]: no effect; also recorded: no IL-4 was detected
- IL-10 production [1]: suppressed
- IFN-γ production by TCR-stimulated primed T cells (versus T cells TCR-stimulated in the absence of α-MSH): significantly (p=0.05) suppressed
